Test results taken from US6440691B1, “Melanins with improved ability to inhibit HIV replication” (Large Scale Biology Corporation, priority 1997, dated 2002).
Where a SMILES comes first, the peptide text is derived from it.

How the values were obtained:
[1] = system: HIV-1 (111a); design: unit not given here; conditions: Table 1; cited from earlier work
[2] = system: HIV-2 (ROD); design: unit not given here; conditions: Table 1; cited from earlier work
[3] = system: HIV-1 IIIB; assay: Anti-HIV activity: protection of MT-2 cells from viral-induced cytopathic effect, neutral red uptake; format: cell-based; conditions: Table 2, CPE after three days
Protocol: Dried melanins were analyzed for anti-HIV activity essentially as described by Montefiori, et al., 1988, J. Clin. Microbiol. […] In brief, the antiviral activities of the various melanins and melanin derivatives described in the present examples were measured in 96-well microdilution plates. Two-fold serial dilutions of melanins were made in triplicate in a total of 100 μl growth medium (RPMI-1640 containing 12% host-inactivated fetal bovine serum and 50 μg gentamicin/ml) per well. MT-2 cells (5×10^4) in 100 μl of growth medium were added to each well and incubated for 10 minutes. Fifty microliters of virus (5×10^4 TCID50/50 μl) were then added to all wells except for one row of eight noncytopathic control wells; these received growth medium in place of virus. Viral-induced cytopathic effect (CPE) was quantified three days later by vital dye (neutral red) uptake in remaining viable cells. Neutral red uptake is a linear function of cell viability with A540 of 0.025 to 0.85 corresponding to 2×10^4 to 25×10^4 viable cells/well (Montefiori, et al., 1988). Percent protection is defined as the difference in A540 between test wells (cells+melanin+virus) and virus control wells (cells+virus) divided by the difference in between cell control wells (cells only) and virus control wells.

á-cyclodextrin tetradecasulfate
50% inhibitory concentration IC50, HIV-1 (111a) [1]: 0.8
50% inhibitory concentration IC50, HIV-2 (ROD) [2]: 1.0

NCC(=O)N[C@@H](Cc1ccc(O)cc1)C(=O)O [Gly-Tyr] (H-Gly-Tyr-OH)
Effective Dose 50 EC50 [3]: >50 µg/mL

á-cyclodextrin hexasulfate
50% inhibitory concentration IC50, HIV-1 (111a) [1]: 26.2
50% inhibitory concentration IC50, HIV-2 (ROD) [2]: 1.9

ã-cyclodextrin hexadecasulfate
50% inhibitory concentration IC50, HIV-1 (111a) [1]: 0.2
50% inhibitory concentration IC50, HIV-2 (ROD) [2]: 0.4

ã-cyclodextrin octasulfate
50% inhibitory concentration IC50, HIV-1 (111a) [1]: 0.6
50% inhibitory concentration IC50, HIV-2 (ROD) [2]: 1.6

â-cyclodextrin heptasulfate
50% inhibitory concentration IC50, HIV-1 (111a) [1]: 3.0
50% inhibitory concentration IC50, HIV-2 (ROD) [2]: 1.8
